{"source": "ChEMBL document CHEMBL1147916", "about": "“2-(2-(2-Ethoxybenzoylamino)-4-chlorophenoxy)-N-(2-ethoxybenzoyl)benzamine inhibits EAT cell induced angiogenesis by down regulation of VEGF secretion” (2007)", "key": {"EAT [1]": {"tested_on": "EAT", "experiment": "Antiangiogenic activity against EAT cells bearing Swiss Albino mouse assessed as ascites volume at 100 mg/kg after 12 days", "type": "functional, organism-based", "design": "dose 100 mg/kg"}, "EAT [2]": {"tested_on": "EAT", "experiment": "Antiangiogenic activity against EAT cells bearing Swiss Albino mouse by CAM assay", "type": "functional"}, "[3]": {"experiment": "Antiangiogenic activity against swiss albino mouse EAT cells assessed as decrease in body weight at 100 mg/kg after 6 days", "type": "functional", "design": "scale not given: the % may be the effect or the level left"}, "EAT [4]": {"tested_on": "EAT", "experiment": "Antiangiogenic activity against EAT cells bearing Swiss Albino mouse assessed as microvasculature at 100 mg/kg after 6 days by peritoneal angiogenesis assay", "type": "functional, organism-based", "design": "dose 100 mg/kg"}, "EAT [5]": {"tested_on": "EAT", "experiment": "Antiangiogenic activity against EAT cells bearing Swiss Albino mouse assessed as cell number at 100 mg/kg after 12 days by trypan blue dye exclusion method", "type": "functional, organism-based", "design": "dose 100 mg/kg"}, "EAT [6]": {"tested_on": "EAT", "experiment": "Inhibition of VEGF secretion in EAT cells bearing Swiss Albino mouse at 100 mg/kg after 6 days by VEGF ELISA", "type": "functional, organism-based", "design": "dose 100 mg/kg"}}, "note": "Calls of active or inactive are those of the source. The rule behind the calls is not given here.", "data": [{"smiles": "CCOc1ccccc1C(=O)Nc1ccccc1Oc1ccc(Cl)cc1NC(=O)c1ccccc1OCC", "values": [{"measurement": "Activity", "setting": "EAT [1]", "result": "Active"}, {"measurement": "Activity", "setting": "EAT [2]", "result": "Active"}, {"measurement": "Activity", "setting": "[3]", "result": 65, "unit": "%"}, {"measurement": "Activity", "setting": "EAT [4]", "result": "Active"}, {"measurement": "Activity", "setting": "EAT [5]", "result": "Active"}, {"measurement": "Activity", "setting": "EAT [6]", "result": "Active"}]}]}
